Data from patent US7435801B2, “Antibodies and other ligands directed against KIR2DL4 receptor for production of interferon gamma” (The United States of America, as represented by the …, priority 2000, dated 2008).

Columns and labels:
[1] = system: IL-2-mediated induction of IFN-gamma production; test: MAPK inhibitors on rIL-2-induced IFN-gamma release by resting NK cells; assay type: cell-based, human; conditions: rIL-2 5 U/ml, 20 h
[2] = system: 2DL4-induced production of IFN-gamma; test: MAPK inhibitors on anti-2DL4 mAb-induced IFN-gamma secretion by resting NK cells; assay type: cell-based, human

SMILES | inhibition of IL-2-mediated induction of IFN-gamma production ([1]; 50 μM inhibitor) | inhibition of 2DL4-induced IFN-gamma production ([2]; concentration not given) | effect on IL-2-mediated induction of IFN-gamma production ([1]; concentration not given) | inhibition of 2DL4-induced IFN-gamma production ([2]; 1 μM inhibitor)
COc1cccc(-c2cc(=O)c3ccccc3o2)c1N [PD98059] | severely inhibited | only a partial inhibitory effect | – | –
C[S+]([O-])c1ccc(-c2nc(-c3ccncc3)c(-c3ccc(F)cc3)[nH]2)cc1 (stereo not shown) [SB203580] | – | – | unaffected | Complete inhibition
